Assay results taken from paper PMC10244169, “Psychedelics promote plasticity by directly binding to BDNF receptor TrkB” (Nature Neuroscience, 2023).

Experiments:
pmTOR = test: Western blot of mTOR phosphorylation in cortical neurons; assay type: cell-based, rat; settings: LSD 100 nM
Experimental: In a separate set of experiments to examine the effect of 5-HT2A activation, M100907 (100 nM) was administered as a 10 min pretreatment and remained in the medium for the rest of the experiment. Next, cells were lysed and centrifuged. […] The co-immunoprecipitation was carried out as previously described[11],[23],[24] with minor modifications. Briefly, Magnetic Dynabeads Protein G (Invitrogen, 10004D) were coated with anti-TrkB antibody (R&D Systems, AF1494) at 200 ng of antibody per 1 µl of beads in rotation (2 h, 4 °C). Finally, lysates were mixed with the coated beads (100 µg of total protein per 15 µl of beads) and incubated in rotation (overnight, 4 °C).
Proteins were separated according to their molecular weight by SDS–PAGE and transferred to a polyvinylidene fluoride membrane. Membranes were incubated with the following primary antibodies (all 1:1,000 in 3% BSA in TBS-T, overnight, 4 °C): anti-TrkB (R&D Systems, AF1494), anti-β-actin (Sigma-Aldrich, A1978), anti-phospho-mTOR (Cell Signaling Technology, 5536S), anti-phospho-p44/42 MAPK (Erk1/2) (Cell Signaling Technology, 9106S), anti-mTOR (Cell Signaling Technology, 2972S) and anti-p44/42 MAPK (Erk1/2) (Cell Signaling Technology, 9102S). […] Protein bands were visualized using enhanced chemiluminescent substrate (Thermo Scientific, 32132, ECL Plus) and imaged with a charge-coupled device camera (G:BOX, Syngene).

TrkB = test: Total TrkB expression in PFC and hippocampus after single LSD injection; assay type: in vivo, mouse; settings: PFC or hippocampus, WT or Y433F^+/− mice
Experimental: The phosphorylation of TrkB (pY816) and interaction with PLCγ1 were assessed by enzyme-linked immunosorbent assay (ELISA) as previously described[11],[80],[81] with minor modifications. Briefly, white 96-well plates (PerkinElmer, OptiPlate 96F-HB) were precoated with goat anti-TrkB (R&D systems, AF1494; 1:500, overnight, 4 °C) antibody in carbonate buffer (pH 9.8) and blocked with 3% BSA in PBS with 0.1% Tween-20 (PBS-T) for 2 h at room temperature. […] Samples were incubated overnight at 4 °C, and 24 h later plates were washed with PBS-T and incubated with either rabbit anti-phospho-TrkB(Tyr816) (Cell Signaling Technology, 4168S; 1:2,000), rabbit anti-PLCγ1 (Cell Signaling Technologies, 5690S; 1:2,000) or rabbit anti-Trk (Cell Signaling Technologies, 92991; 1:2,000) antibodies overnight at 4 °C. After washing with PBS-T, plates were incubated with HRP-conjugated goat anti-rabbit (Bio-Rad, 170–5046; 1:5,000, 1 h, room temperature) antibody, followed by more washing with PBS-T. Finally, the chemiluminescent signal was read after brief incubation with Pierce ECL substrate (Thermo Fisher Scientific, 32106). Luminescence from blank wells that contained all reagents but the sample lysates was used to determine background signal.

TrkB V437A = biological target: T1, TrkB V437A (Rattus norvegicus, UniProt Q63604, V437A); test: ^3H-LSD saturation binding, TrkB mutant
T1 construct: expressed in transfected cells; host or cells: HEK293T
Experimental: (§1) Binding assays were performed as previously described with minor modifications. […] Samples from mouse embryo (E18) brains were also lysed, vortexed, sonicated and centrifuged for binding assays. Plates were then washed with PBS. […] For the competition binding assays with biotinylated R,R-HNK, the amino-biotinylation of R,R-HNK was performed using a commercial kit (Thermo Scientific, EZ-Link NHS-PEG4 Biotinylation Kit, 21455) and the reaction monitored by MS. A mixture of biotinylated R,R-HNK (10 µM) and unlabeled compounds (1 pM to 10 µM) in PBS was added to the 96-well plates containing the immunoprecipitated TrkB and incubated for 1 h at room temperature. […] Luminescence was determined via streptavidin conjugated with horseradish peroxidase (HRP; Thermo Fisher Scientific, 21126; 1:5,000, 1 h at room temperature) in reaction with the Pierce ECL substrate (Thermo Fisher Scientific, 32106). Luminescence from blank wells that contained all reagents but the sample lysates was used to determine nonspecific binding. To obtain the binding curves, results from binding assays were fitted to the equation of specific binding with Hill slope from GraphPad Prism 9.2. To calculate koff values, results were fitted to the equation of dissociation of one phase exponential decay from GraphPad Prism 9.2.

TrkB Y433F = biological target: T2, TrkB Y433F (Rattus norvegicus, UniProt Q63604, Y433F); test: ^3H-LSD saturation binding, TrkB mutant
T2 construct: expressed in transfected cells; host or cells: HEK293T
Experimental: as §1

BDNF protein = BDNF protein ELISA in cortical neurons; assay type: cell-based, rat; settings: for BDNF protein, group mean (5g): LSD 100 nM, vehicle 100
Experimental: To determine BDNF protein concentrations, ELISA was run as previously described[83] with minor modifications. […] Samples were diluted in Hanks buffer (125 mM NaCl, 5 mM KCl, 1.2 mM NaH2PO4, 1 mM CaCl2, 1.2 mM MgCl2, 1 μM ZnCl2, 10 mM glucose, 25 mM HEPES and 0.25% BSA, pH 7.4). Samples and BDNF standards (10–1,000 pg ml^−1, Peprotech) were acidified at room temperature to pH 3 by adding 1 M HCl and neutralized to pH 7 after 15 min with 1 M NaOH. A Maxisorb Nunc ELISA plate (Thermo Scientific) previously coated with a primary BDNF antibody (1:1,000 in carbonate buffer, overnight, 4 °C) and blocked (2% BSA and 0.1% Triton X-100 in Hanks buffer, 2 h, room temperature). Then, 170 µl of samples and standards were added to the plate with 30 µl of the secondary POD-conjugated BDNF antibody (1:1,000 in 6.66% BSA and 0.66% Triton X-100 in Hanks buffer). The BDNF antibodies were received from Roche and have been previously described. After incubating overnight at 4 °C the plate was washed with PBS-T. BM Blue POD substrate (Roche, 54827-17-1) was added to each well, and the colorimetric reaction was stopped after 20 min by adding 50 µl of 1 M H2SO4. Absorbance was measured at […] with a plate reader (Varioskan Flash, Thermo Scientific).

TrkB WT = biological target: T3, TrkB WT (Rattus norvegicus, UniProt Q63604); test: Radioligand dissociation binding of ^3H-LSD; settings: ext fig 1c, n=3
T3 construct: expressed in transfected cells; host or cells: HEK293T
Experimental: as §1

T1 sequence (Q63604 32-821 V437A): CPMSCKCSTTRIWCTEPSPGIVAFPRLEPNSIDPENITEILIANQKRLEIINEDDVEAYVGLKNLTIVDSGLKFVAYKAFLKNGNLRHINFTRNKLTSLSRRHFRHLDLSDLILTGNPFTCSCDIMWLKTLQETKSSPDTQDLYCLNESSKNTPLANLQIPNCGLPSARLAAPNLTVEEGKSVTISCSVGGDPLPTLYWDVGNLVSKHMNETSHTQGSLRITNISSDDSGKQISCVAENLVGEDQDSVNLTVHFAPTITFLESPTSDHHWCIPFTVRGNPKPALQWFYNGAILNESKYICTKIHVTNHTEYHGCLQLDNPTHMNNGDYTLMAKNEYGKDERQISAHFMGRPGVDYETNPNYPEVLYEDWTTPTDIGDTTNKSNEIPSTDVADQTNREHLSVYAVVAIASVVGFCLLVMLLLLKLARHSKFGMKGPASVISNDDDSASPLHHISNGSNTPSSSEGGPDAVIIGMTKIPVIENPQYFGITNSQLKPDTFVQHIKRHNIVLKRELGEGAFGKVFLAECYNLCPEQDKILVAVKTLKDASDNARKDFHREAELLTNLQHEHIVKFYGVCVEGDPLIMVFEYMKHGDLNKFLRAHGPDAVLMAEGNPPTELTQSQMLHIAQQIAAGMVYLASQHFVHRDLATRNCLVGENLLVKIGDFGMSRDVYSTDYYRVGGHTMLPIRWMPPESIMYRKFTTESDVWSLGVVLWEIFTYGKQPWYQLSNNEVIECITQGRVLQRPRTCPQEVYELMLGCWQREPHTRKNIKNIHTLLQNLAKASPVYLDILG
T3 sequence (Q63604 32-821): as the sequence (Q63604 32-821 V437A) above, with A406V counted along it
T2 sequence (Q63604 32-821 Y433F): as the sequence (Q63604 32-821 V437A) above, with Y402F, A406V counted along it

`CCN(CC)C(=O)C1C=C2c3cccc4[nH]cc(c34)CC2N(C)C1` (stereo not shown) [LSD, lysergic acid diethylamide] was tested, and the “phosphorylation of mTOR” value (pmTOR) was “promotes phosphorylation of mTOR for at least 1 h”, the “total TrkB expression” value (TrkB) was “remain unaffected” and the “Bmax (best-fit, 1a)” value (TrkB V437A) was 88.07. For the same molecule, the “h (best-fit, 1a)” value (TrkB V437A) was 1.581, the Kd (TrkB V437A; Kd (best-fit, 1a), unit inferred) was 25.9 nM and the Kd (TrkB V437A; Kd, ^3H-LSD saturation) was 25.9 ± 10.6 nM. For the same molecule, the Kd (TrkB Y433F; Kd (best-fit, 1a), Y433F, unit inferred) was 24.6 nM, the Kd (TrkB Y433F; Kd, ^3H-LSD saturation, Y433F) was 24.6 ± 4.68 nM and the “Bmax (best-fit, 1a)” value (TrkB Y433F; Y433F) was 91.95. The “h (best-fit, 1a)” value (TrkB Y433F; Y433F) was 1.98, the LSD binding (TrkB Y433F; Y433F point mutation) was “impairs LSD binding” and the “BDNF protein, group mean (5g)” value (BDNF protein; 5 min) was 101.1. For the same molecule, the “BDNF protein, group mean (5g)” value (BDNF protein; 1 h) was 105.6, the “BDNF protein, group mean (5g)” value (BDNF protein; 24 h) was 146.4 and the “BDNF protein, group mean (5g)” value (BDNF protein; 72 h) was 104.8. For the same molecule, the BDNF protein levels (BDNF protein; after LSD treatment) was “elevated at 24 h”, the “K (dissociation, one phase exponential decay)” value (TrkB WT) was 0.008532 and the “NS (dissociation, one phase exponential decay)” value (TrkB WT) was 2.667. For the same molecule, the “Y0 (dissociation, one phase exponential decay)” value (TrkB WT) was 110.7.
